| Structure (SMILES) | melting point [°C] |
| --- | --- |
| O=C(Nc1cc(-c2c(-c3ccc(F)cc3)nc3cccnn23)ccn1)c1ccncc1 [Example 40-1, N-{4-[2-(4-fluorophenyl)imidazo[1,2-b]pyridazin-3-yl]pyridin-2-yl}isonicotinamide] | 226 to 227 |
| O=C(Nc1cc(-c2c(-c3ccc(F)cc3)nc3cccnn23)ccn1)c1ccc(Cl)nc1 [Example 40-2, 6-chloro-N-{4-[2-(4-fluorophenyl)imidazo[1,2-b]pyridazin-3-yl]pyridin-2-yl}nicotinamide] | 247 to 248 |
| Cc1cc(-c2nc3c(C)cc(Cl)nn3c2-c2ccnc(NC(=O)c3ccc(F)cc3)c2)ccc1F [Example 41-2, N-{4-[6-chloro-2-(4-fluoro-3-methylphenyl)-8-methylimidazo[1,2-b]pyridazin-3-yl]-2-pyridyl}-4-fluorobenzamide] | 235 to 236 |
| Cc1cc(-c2nc3cc(C(C)(C)C)c(Cl)nn3c2-c2ccnc(NC(=O)c3ccc(F)cc3)c2)ccc1F [Example 41-3, N-{4-[7-tert-butyl-6-chloro-2-(4-fluoro-3-methylphenyl)imidazo[1,2-b]pyridazin-3-yl]-2-pyridyl}-4-fluorobenzamide] | 181 to 182 |
| Cc1cc(-c2nc3c(C)ccnn3c2-c2ccnc(NC(=O)c3ccc(F)cc3)c2)ccc1F [Example 41-4, N-{4-[2-(4-fluoro-3-methylphenyl)-8-methylimidazo[1,2-b]pyridazin-3-yl]-2-pyridyl}-4-fluorobenzamide] | 243 to 244 |
| Cc1cc(-c2nc3cc(C(C)(C)C)cnn3c2-c2ccnc(NC(=O)c3ccc(F)cc3)c2)ccc1F [Example 41-5, N-{4-[7-tert-butyl-2-(4-fluoro-3-methylphenyl)imidazo[1,2-b]pyridazin-3-yl]-2-pyridyl}-4-fluorobenzamide] | 201 to 202 |
| Cc1cc(-c2nc3cccnn3c2-c2ccnc(NC(=O)CC(F)(F)F)c2)ccc1F [Example 42-1, 3,3,3-trifluoro-N-{4-[2-(4-fluoro-3-methylphenyl)imidazo[1,2-b]pyridazin-3-yl]pyridin-2-yl}propanamide] | 220 to 221 |
| Cc1cc(-c2nc3cccnn3c2-c2ccnc(NC(=O)C(C)C)c2)ccc1F [Example 42-2, N-{4-[2-(4-fluoro-3-methylphenyl)imidazo[1,2-b]pyridazin-3-yl]pyridin-2-yl}-2-methylpropanamide] | 214 to 215 |
| CCCC(=O)Nc1cc(-c2c(-c3ccc(F)c(C)c3)nc3cccnn23)ccn1 [Example 42-4, N-{4-[2-(4-fluoro-3-methylphenyl)imidazo[1,2-b]pyridazin-3-yl]pyridin-2-yl}butanamide] | 181 to 183 |
| CSCCC(=O)Nc1cc(-c2c(-c3ccc(F)c(C)c3)nc3cccnn23)ccn1 [Example 42-5, N-{4-[2-(4-fluoro-3-methylphenyl)imidazo[1,2-b]pyridazin-3-yl]pyridin-2-yl}-3-(methylthio)propanamide] | 158 to 159 |
| Cc1cc(-c2nc3cccnn3c2-c2ccnc(NC(=O)c3ccc(Cl)cc3)c2)ccc1F [Example 42-7, 4-chloro-N-{4-[2-(4-fluoro-3-methylphenyl)imidazo[1,2-b]pyridazin-3-yl]pyridin-2-yl}benzamide] | 208 to 209 |
| COc1cc(F)ccc1C(=O)Nc1cc(-c2c(-c3ccc(F)c(C)c3)nc3cccnn23)ccn1 [Example 42-8, 4-fluoro-N-{4-[2-(4-fluoro-3-methylphenyl)imidazo[1,2-b]pyridazin-3-yl]pyridin-2-yl}-2-methoxybenzamide] | 251 to 252 |
| CSc1ccc(C(=O)Nc2cc(-c3c(-c4ccc(F)c(C)c4)nc4cccnn34)ccn2)cc1 [Example 42-9, N-{4-[2-(4-fluoro-3-methylphenyl)imidazo[1,2-b]pyridazin-3-yl]pyridin-2-yl}-4-(methylthio)benzamide] | 191 to 192 |
| Cc1cc(-c2nc3cccnn3c2-c2ccnc(NC(=O)c3ccc(N(C)C)cc3)c2)ccc1F [Example 42-10, 4-(dimethylamino)-N-{4-[2-(4-fluoro-3-methylphenyl)imidazo[1,2-b]pyridazin-3-yl]pyridin-2-yl}benzamide] | 245 to 246 |
| COc1cc(C(=O)Nc2cc(-c3c(-c4ccc(F)c(C)c4)nc4cccnn34)ccn2)ccc1F [Example 42-11, 4-fluoro-N-{4-[2-(4-fluoro-3-methylphenyl)imidazo[1,2-b]pyridazin-3-yl]pyridin-2-yl}-3-methoxybenzamide] | 217 to 218 |
| COc1ccc(C(=O)Nc2cc(-c3c(-c4ccc(F)c(C)c4)nc4cccnn34)ccn2)cc1F [Example 42-12, 3-fluoro-N-{4-[2-(4-fluoro-3-methylphenyl)imidazo[1,2-b]pyridazin-3-yl]pyridin-2-yl}-4-methoxybenzamide] | 202 to 203 |
| Cc1cc(-c2nc3cccnn3c2-c2ccnc(NC(=O)c3ccc(C(F)(F)F)cc3)c2)ccc1F [Example 42-13, N-{4-[2-(4-fluoro-3-methylphenyl)imidazo[1,2-b]pyridazin-3-yl]pyridin-2-yl}-4-(trifluoromethyl)benzamide] | 224 to 225 |

| Structure (SMILES) | melting point [°C] |
| --- | --- |
| Cc1cc(-c2nc3cccnn3c2-c2ccnc(NC(=O)c3ccc(OC(F)(F)F)cc3)c2)ccc1F [Example 42-14, N-{4-[2-(4-fluoro-3-methylphenyl)imidazo[1,2-b]pyridazin-3-yl]pyridin-2-yl}-4-(trifluoromethoxy)benzamide] | 225 to 226 |
| Cc1cc(-c2nc3cccnn3c2-c2ccnc(NC(=O)c3ccc(Cl)cc3C)c2)ccc1F [Example 42-15, 4-chloro-N-{4-[2-(4-fluoro-3-methylphenyl)imidazo[1,2-b]pyridazin-3-yl]pyridin-2-yl}-2-methylbenzamide] | 196 to 197 |
| COc1ccc(C(=O)Nc2cc(-c3c(-c4ccc(F)c(C)c4)nc4cccnn34)ccn2)c(C)c1 [Example 42-18, N-{4-[2-(4-fluoro-3-methylphenyl)imidazo[1,2-b]pyridazin-3-yl]pyridin-2-yl}-4-methoxy-2-methylbenzamide] | 200 to 202 |
| Cc1cc(-c2nc3cccnn3c2-c2ccnc(NC(=O)c3ccc4ccccc4c3)c2)ccc1F [Example 42-19, N-{4-[2-(4-fluoro-3-methylphenyl)imidazo[1,2-b]pyridazin-3-yl]pyridin-2-yl}-2-naphthamide] | 187 to 188 |
| Cc1cc(-c2nc3cccnn3c2-c2ccnc(NC(=O)c3cccc4ccccc34)c2)ccc1F [Example 42-20, N-{4-[2-(4-fluoro-3-methylphenyl)imidazo[1,2-b]pyridazin-3-yl]pyridin-2-yl}-1-naphthamide] | 252 to 253 |
| Cc1cc(-c2nc3cccnn3c2-c2ccnc(NC(=O)c3ccc(Cl)nc3)c2)ccc1F [Example 42-24, 6-chloro-N-{4-[2-(4-fluoro-3-methylphenyl)imidazo[1,2-b]pyridazin-3-yl]pyridin-2-yl}nicotinamide] | 225 to 226 |
| Cc1cc(-c2nc3cccnn3c2-c2ccnc(NC(=O)c3ccnc(Cl)c3)c2)ccc1F [Example 42-25, 2-chloro-N-{4-[2-(4-fluoro-3-methylphenyl)imidazo[1,2-b]pyridazin-3-yl]pyridin-2-yl}isonicotinamide] | 224 to 225 |
| Cc1cc(-c2nc3cccnn3c2-c2ccnc(NC(=O)c3ccc(C(F)(F)F)nc3)c2)ccc1F [Example 42-26, N-{4-[2-(4-fluoro-3-methylphenyl)imidazo[1,2-b]pyridazin-3-yl]pyridin-2-yl}-6-(trifluoromethyl)nicotinamide] | 225 to 226 |
| Cc1cc(-c2nc3cccnn3c2-c2ccnc(NC(=O)c3cncc(Cl)c3)c2)ccc1F [Example 42-28, 5-chloro-N-{4-[2-(4-fluoro-3-methylphenyl)imidazo[1,2-b]pyridazin-3-yl]pyridin-2-yl}nicotinamide] | 252 to 254 |
| Cc1cc(-c2nc3cccnn3c2-c2ccnc(NC(=O)c3cccnc3C)c2)ccc1F [Example 42-29, N-{4-[2-(4-fluoro-3-methylphenyl)imidazo[1,2-b]pyridazin-3-yl]pyridin-2-yl}-2-methylnicotinamide] | 258 to 259 |
| Cc1cncc(C(=O)Nc2cc(-c3c(-c4ccc(F)c(C)c4)nc4cccnn34)ccn2)c1 [Example 42-30, N-{4-[2-(4-fluoro-3-methylphenyl)imidazo[1,2-b]pyridazin-3-yl]pyridin-2-yl}-5-methylnicotinamide] | 238 to 240 |
| Cc1cc(-c2nc3cccnn3c2-c2ccnc(NC(=O)c3ccsc3)c2)ccc1F [Example 42-32, N-{4-[2-(4-fluoro-3-methylphenyl)imidazo[1,2-b]pyridazin-3-yl]pyridin-2-yl}thiophene-3-carboxamide] | 217 to 218 |
| Cc1cc(-c2nc3cccnn3c2-c2ccnc(NC(=O)c3ccoc3)c2)ccc1F [Example 42-33, N-{4-[2-(4-fluoro-3-methylphenyl)imidazo[1,2-b]pyridazin-3-yl]pyridin-2-yl}-3-furamide] | 199 to 200 |
| Cc1cc(-c2nc3cccnn3c2-c2ccnc(NC(=O)c3cnccn3)c2)ccc1F [Example 42-34, N-{4-[2-(4-fluoro-3-methylphenyl)imidazo[1,2-b]pyridazin-3-yl]pyridin-2-yl}pyrazine-2-carboxamide] | 229 to 230 |
| Cc1ccc(C(=O)Nc2nccc(-c3c(-c4cccc(C)c4)nc4cccnn34)n2)cc1 [Example 44-1, 4-methyl-N-{4-[2-(3-methylphenyl)imidazo[1,2-b]pyridazin-3-yl]pyrimidin-2-yl}benzamide] | 211 to 212 |
| COc1ccc(C(=O)Nc2nccc(-c3c(-c4cccc(C)c4)nc4cccnn34)n2)cc1 [Example 44-2, 4-methoxy-N-{4-[2-(3-methylphenyl)imidazo[1,2-b]pyridazin-3-yl]pyrimidin-2-yl}benzamide] | 193 to 194 |
| Cc1cccc(-c2nc3cccnn3c2-c2ccnc(NC(=O)c3ccncc3)n2)c1 [Example 44-3, N-{4-[2-(3-methylphenyl)imidazo[1,2-b]pyridazin-3-yl]pyrimidin-2-yl}isonicotinamide] | 181 to 182 |

Reference: patent publication US20080167314A1, “Condensed Imidazole Compound And Use Thereof” (priority 2004, published 2008)
